Test results taken from publication PMC10108821, “Three tyrosine kinase inhibitors cause cardiotoxicity by inducing endoplasmic reticulum stress and inflammation in cardiomyocytes” (BMC Medicine, 2023).

Columns and labels:
[1] = system: patients; settings: cited from earlier work
[2] = system: NRCMs; experiment: Seahorse assay: oxygen consumption and extracellular acidification; assay type: cell-based, rat; settings: 24 h; fixed doses: 10 µM, crizotinib and ponatinib 3.16 µM
[3] = system: rat left ventricles; experiment: Rat gavage cardiotoxicity model: qRT-PCR in left ventricles; assay type: in vivo; settings: ponatinib 15 mg/kg, sorafenib 50 mg/kg gavage, 3 or 7 days
Method: (§1) All experiments were performed in accordance with relevant guidelines and regulations approved by the Institutional Animal Care and Use Committee (IACUC) at Peking University Health Science Center. Sprague-Dawley rats (170-200g) were purchased from Beijing Vital River Laboratory Animal Technology. Forty-eight male rats were randomly divided into six groups, with 8 animals per group. […] The gavage was done daily starting at 10am. At the end of the experiments, rats were euthanized by CO2 about 5~6 hours after the last gavage, and then hearts were harvested for further study. Left ventricular muscle was dissected and divided into 3 parts with similar size, one of which was used for RNA extraction and qRT-PCR.
RNA was isolated based on a standard protocol using TRIzol reagent (Vazyme). TRIzol (1ml per 1 well of a 6-well plate) was used to lyse cells and chloroform was added for RNA separation. Samples were shaked vigorously by hand for 15 seconds and incubated at room temperature for 2-3 minutes. RNA was present in the aqueous phase after centrifuge at 12000 x g for 15 minutes. Isopropyl alcohol was mixed to precipitate RNA from the aqueous phase. […] 1 μg total RNA was used for cDNA synthesis using a reverse transcription kit (Bioman). We then measured expression of genes of interest with SYBRR Green qPCR Mix (Bioman) using Applied Biosystems 7500 Quantitative PCR Instrument. […]

[4] = system: Sprague-Dawley rats; experiment: Rat gavage cardiotoxicity model: survival, heart and body weight; settings: day 7; ponatinib 15 mg/kg, sorafenib 50 mg/kg gavage once daily
Method: as §1

[5] = system: HELP hiPSC-CMs; experiment: CardioExcyte 96 microelectrode array: base impedance and extracellular field potential; assay type: cell-based, human; settings: fixed doses: 10 µM, crizotinib and ponatinib 3.16 µM; up to 24 h
In short: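 HELP hiPSC-CMs plated at 50,000 cells/well on 96-well microelectrode arrays, cultured 3-5 days until impedance and field potential stabilized. Recordings before and every 30~60 min after drug addition (added at 2x); beat rate, impedance amplitude, base impedance and FPDc averaged over 3 wells.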

[6] = system: TNNT2 protein in NRCMs; experiment: TNNT2 immunofluorescence; assay type: cell-based, rat; settings: 24 h; 10 µM afatinib, 10 µM sorafenib, 5.62 µM ponatinib
Method: Cells cultured in multi-well plates were fixed with 4% paraformaldehyde (Sigma) for 30 minutes at room temperature, washed 3 times with PBS, and permeabilized with 0.2% Tritonx100 (Applygen) for 15 minutes. Then, cells were blocked with 5% normal goat serum (Bioss) for 1-hr at room temperature and probed with primary antibodies against TNNT2 (proteintech) or NF-κB (CST) overnight at 4°C. Secondary antibodies (Jackson Immuno Research Laboratories, Inc.) and 0.4ug/mL DAPI (Coolaber) were applied at room temperature for 1 hour. Immunofluorescence pictures were taken by ImageXpress Micro Confocal-AWES (Molecular Devices).

For `CNC(=O)c1cc(Oc2ccc(NC(=O)Nc3ccc(Cl)c(C(F)(F)F)c3)cc2)ccn1` [sorafenib], the myocardial ischemia ([1]; clinical trials) is listed as 2.7–3%, the “level of cardiotoxicity based on literature reports” value ([1]; ref Table S1, 2, 4, 26–36) is listed as “high-levels of cardiotoxicity” and the “basal oxygen consumption rate (OCR)” value [2] is listed as “significant inhibition”. For the same molecule, the “maximal, spare and non-mitochondrial oxygen consumption” value [2] was “inhibited maximal, spare, and non-mitochondrial oxygen consumption significantly”, the “gene expression of Anp” value [3] was “did not induce a significant change” and the “heart or body weight” value [4] was “not changed”. The “effect on beat rate, contraction, base impedance and corrected field potential duration” value [5] was “stopped beating and contraction of hiPSC-CMs after 0.5 h of treatment” and the “TNNT2 protein (cardiac Troponin T2)” value [6] was “had the most effect”.
